Columns and labels:
Format in all cases: functional
Streptococcus pneumoniae [1] = assay: Antimicrobial activity against Streptococcus pneumoniae serotype 19A by broth microdilution method in presence of beta-lactamase inhibitor clavulanic acid
Streptococcus pneumoniae [2] = assay: Antimicrobial activity against Streptococcus pneumoniae serotype 3 by broth microdilution method in presence of beta-lactamase inhibitor clavulanic acid
Streptococcus pneumoniae [3] = assay: Antimicrobial activity against Streptococcus pneumoniae serotype 35B by broth microdilution method in presence of beta-lactamase inhibitor clavulanic acid
Streptococcus pneumoniae [4] = assay: Antimicrobial activity against Streptococcus pneumoniae serotype 7F by broth microdilution method in presence of beta-lactamase inhibitor clavulanic acid
Streptococcus pneumoniae [5] = assay: Antimicrobial activity against Streptococcus pneumoniae serotype 11A by broth microdilution method in presence of beta-lactamase inhibitor clavulanic acid
Streptococcus pneumoniae [6] = assay: Antimicrobial activity against Streptococcus pneumoniae serotype 6C by broth microdilution method in presence of beta-lactamase inhibitor clavulanic acid
Streptococcus pneumoniae [7] = assay: Antimicrobial activity against multiple drug resistant Streptococcus pneumoniae serotype 19A by broth microdilution method in presence of beta-lactamase inhibitor clavulanic acid
Streptococcus pneumoniae [8] = assay: Antimicrobial activity against multiple drug resistant Streptococcus pneumoniae serotype 19F by broth microdilution method in presence of beta-lactamase inhibitor clavulanic acid
Streptococcus pneumoniae [9] = assay: Antimicrobial activity against multiple drug resistant Streptococcus pneumoniae serotype 6B by broth microdilution method in presence of beta-lactamase inhibitor clavulanic acid
Streptococcus pneumoniae [10] = assay: Antimicrobial activity against Streptococcus pneumoniae serotype 19A assessed as percent susceptible isolates by broth microdilution method in presence of beta-lactamase inhibitor clavulanic acid
Streptococcus pneumoniae [11] = assay: Antimicrobial activity against Streptococcus pneumoniae serotype 3 assessed as percent susceptible isolates by broth microdilution method in presence of beta-lactamase inhibitor clavulanic acid
Streptococcus pneumoniae [12] = assay: Antimicrobial activity against Streptococcus pneumoniae serotype 35B assessed as percent susceptible isolates by broth microdilution method in presence of beta-lactamase inhibitor clavulanic acid
Streptococcus pneumoniae [13] = assay: Antimicrobial activity against Streptococcus pneumoniae serotype 7F assessed as percent susceptible isolates by broth microdilution method in presence of beta-lactamase inhibitor clavulanic acid
Streptococcus pneumoniae [14] = assay: Antimicrobial activity against Streptococcus pneumoniae serotype 11A assessed as percent susceptible isolates by broth microdilution method in presence of beta-lactamase inhibitor clavulanic acid
Streptococcus pneumoniae [15] = assay: Antimicrobial activity against Streptococcus pneumoniae serotype 6C assessed as percent susceptible isolates by broth microdilution method in presence of beta-lactamase inhibitor clavulanic acid
Streptococcus pneumoniae [16] = assay: Antimicrobial activity against multiple drug resistant Streptococcus pneumoniae serotype 19A assessed as percent susceptible isolates by broth microdilution method in presence of beta-lactamase inhibitor clavulanic acid
Streptococcus pneumoniae [17] = assay: Antimicrobial activity against multiple drug resistant Streptococcus pneumoniae serotype 19F assessed as percent susceptible isolates by broth microdilution method in presence of beta-lactamase inhibitor clavulanic acid
Streptococcus pneumoniae [18] = assay: Antimicrobial activity against multiple drug resistant Streptococcus pneumoniae serotype 6B assessed as percent susceptible isolates by broth microdilution method in presence of beta-lactamase inhibitor clavulanic acid
Streptococcus pneumoniae [19] = assay: Antimicrobial activity against Streptococcus pneumoniae serotype 15A assessed as percent susceptible isolates by broth microdilution method in presence of beta-lactamase inhibitor clavulanic acid
Streptococcus pneumoniae [20] = assay: Antimicrobial activity against Streptococcus pneumoniae serotype 22F assessed as percent susceptible isolates by broth microdilution method in presence of beta-lactamase inhibitor clavulanic acid
Streptococcus pneumoniae [21] = assay: Antimicrobial activity against Streptococcus pneumoniae serotype 23A assessed as percent susceptible isolates by broth microdilution method in presence of beta-lactamase inhibitor clavulanic acid
Streptococcus pneumoniae [22] = assay: Antimicrobial activity against Streptococcus pneumoniae serotype 23B assessed as percent susceptible isolates by broth microdilution method in presence of beta-lactamase inhibitor clavulanic acid
Streptococcus pneumoniae [23] = assay: Antimicrobial activity against Streptococcus pneumoniae serotype 19F assessed as percent susceptible isolates by broth microdilution method in presence of beta-lactamase inhibitor clavulanic acid
Streptococcus pneumoniae [24] = assay: Antimicrobial activity against Streptococcus pneumoniae serotype 15A assessed as percent susceptible isolates by broth microdilution method

CC1(C)S[C@@H]2[C@H](NC(=O)[C@H](N)c3ccc(O)cc3)C(=O)N2[C@H]1C(=O)O [AMOXICILLIN]
MIC50 (Streptococcus pneumoniae [1]): 8 µg/mL | MIC90 (Streptococcus pneumoniae [1]): 8 µg/mL | MIC (Streptococcus pneumoniae [2]): ≤ 1 µg/mL | MIC50 (Streptococcus pneumoniae [2]): ≤ 1 µg/mL | MIC90 (Streptococcus pneumoniae [2]): ≤ 1 µg/mL | MIC50 (Streptococcus pneumoniae [3]): 2 µg/mL | MIC90 (Streptococcus pneumoniae [3]): 4 µg/mL | MIC (Streptococcus pneumoniae [4]): ≤ 1 µg/mL | MIC50 (Streptococcus pneumoniae [4]): ≤ 1 µg/mL | MIC90 (Streptococcus pneumoniae [4]): ≤ 1 µg/mL | MIC (Streptococcus pneumoniae [5]): ≤ 1 µg/mL | MIC50 (Streptococcus pneumoniae [5]): ≤ 1 µg/mL | MIC90 (Streptococcus pneumoniae [5]): ≤ 1 µg/mL | MIC (Streptococcus pneumoniae [6]): ≤ 1 µg/mL | MIC50 (Streptococcus pneumoniae [6]): ≤ 1 µg/mL | MIC90 (Streptococcus pneumoniae [6]): ≤ 1 µg/mL | MIC50 (Streptococcus pneumoniae [7]): 8 µg/mL | MIC90 (Streptococcus pneumoniae [7]): 16 µg/mL | MIC50 (Streptococcus pneumoniae [8]): 8 µg/mL | MIC90 (Streptococcus pneumoniae [8]): 16 µg/mL | MIC50 (Streptococcus pneumoniae [9]): 8 µg/mL | MIC90 (Streptococcus pneumoniae [9]): 16 µg/mL | Activity (Streptococcus pneumoniae [10]): 45% | Activity (Streptococcus pneumoniae [11]): 100% | Activity (Streptococcus pneumoniae [12]): 62.7% | Activity (Streptococcus pneumoniae [13]): 62.7% | Activity (Streptococcus pneumoniae [14]): 98% | Activity (Streptococcus pneumoniae [15]): 100% | Activity (Streptococcus pneumoniae [16]): 8.1% | Activity (Streptococcus pneumoniae [17]): 8.1% | Activity (Streptococcus pneumoniae [18]): 8.1% | Activity (Streptococcus pneumoniae [19]): 100% | Activity (Streptococcus pneumoniae [20]): 100% | Activity (Streptococcus pneumoniae [21]): 100% | Activity (Streptococcus pneumoniae [22]): 100% | Activity (Streptococcus pneumoniae [23]): 37.9% | Activity (Streptococcus pneumoniae [24]): 100%
